Structures are written as SMILES. pEC50, pIC50: −log10 of the molar value.

In series [1] the target is T1, Melanin-concentrating hormone receptor 1 (Rattus norvegicus, UniProt P97639). Description: […] of IP3-coupled mobilization of calcium in HEK293 cells expressing rat MCH-R1. Format: functional, cell-based.
The target of series [2] is T2, Melanin-concentrating hormone receptor 1 (Homo sapiens, UniProt Q99705). As to the kind of experiment: Displacement of 125I-[Phe13,Tyr19]-MCH from human MCH-R1. (Loss of bound radioactivity is the signal in a displacement assay; it reports binding, not function.)
T2 sequence (Q99705 whole entry): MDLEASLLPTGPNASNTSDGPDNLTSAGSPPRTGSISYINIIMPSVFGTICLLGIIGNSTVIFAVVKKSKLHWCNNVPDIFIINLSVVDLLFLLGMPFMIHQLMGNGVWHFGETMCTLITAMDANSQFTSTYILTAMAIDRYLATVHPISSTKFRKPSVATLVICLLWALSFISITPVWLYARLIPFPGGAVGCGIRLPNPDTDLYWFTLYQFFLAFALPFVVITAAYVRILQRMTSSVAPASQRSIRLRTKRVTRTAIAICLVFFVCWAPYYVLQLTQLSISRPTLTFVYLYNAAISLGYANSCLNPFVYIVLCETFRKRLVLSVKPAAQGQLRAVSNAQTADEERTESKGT
The target of series [3] is Melanin-concentrating hormone receptor 2 (Homo sapiens) (UniProt Q969V1). Description: Inhibition of 125I-[Phe13,Tyr19]-MCHbinding to human MCH-R2. The note with it: concentration not given here.
Chain of Melanin-concentrating hormone receptor 2 (Homo sapiens) (Q969V1 whole entry, the tested form may be a part): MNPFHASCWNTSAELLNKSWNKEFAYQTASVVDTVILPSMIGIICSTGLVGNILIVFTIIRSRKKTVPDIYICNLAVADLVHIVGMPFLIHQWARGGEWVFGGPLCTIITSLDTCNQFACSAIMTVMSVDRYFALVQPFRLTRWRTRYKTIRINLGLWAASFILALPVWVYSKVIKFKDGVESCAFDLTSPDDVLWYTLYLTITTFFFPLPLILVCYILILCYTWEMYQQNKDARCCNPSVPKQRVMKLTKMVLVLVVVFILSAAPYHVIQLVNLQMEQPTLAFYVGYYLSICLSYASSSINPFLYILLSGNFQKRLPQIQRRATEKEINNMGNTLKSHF
For the next series, the species on record is Rattus norvegicus. As to the kind of experiment: Decreased overnight food intake in continuously infused rats on high-fat diet. Format: functional.
Series [4] is described as follows: Rat Clp. Format: ADME, organism-based. The note with it: plasma, read-out: Clp.
The nature of series [5]: Volume of distribution in rats. Format: ADME, organism-based. The note with it: rat, in vivo; read-out: Vdss.
Series [6] can be described thus: Half-life in rats. The series is classed as ADME, organism-based. The note with it: rat, in vivo.
The target of series [7] is T1, Melanin-concentrating hormone receptor 1. As to the kind of experiment: Displacement of 125I-[Phe13,Tyr19]-MCH from rat MCH-R1.
The target in series [8] is Melanin-concentrating hormone receptor 1 (Rattus norvegicus) (UniProt P97639). As to the kind of experiment: Inhibition of 125I-[Phe13,Tyr19]-MCH binding to rat MCH-R1 at 5uM.
Chain of Melanin-concentrating hormone receptor 1 (Rattus norvegicus) (P97639 whole entry): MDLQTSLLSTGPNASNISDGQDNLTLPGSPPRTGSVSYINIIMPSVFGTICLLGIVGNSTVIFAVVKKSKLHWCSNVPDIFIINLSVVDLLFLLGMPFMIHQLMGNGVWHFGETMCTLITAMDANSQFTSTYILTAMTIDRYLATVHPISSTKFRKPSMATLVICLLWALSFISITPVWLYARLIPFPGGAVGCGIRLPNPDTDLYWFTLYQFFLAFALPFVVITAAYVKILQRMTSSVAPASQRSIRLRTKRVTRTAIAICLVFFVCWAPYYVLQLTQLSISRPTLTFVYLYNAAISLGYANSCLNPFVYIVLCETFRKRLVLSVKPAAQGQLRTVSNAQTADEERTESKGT
Series [9] addresses T2, Melanin-concentrating hormone receptor 1. Description: Inhibition of 125I-[Phe13,Tyr19]-MCH binding to human MCH-R1 at 5uM.

T1 sequence (P97639 whole entry): as above

For `O=C(CCc1ccc(C(F)(F)F)cc1)Nc1ccc2nc(N3CC4CC3CN4)ccc2c1` (stereo unspecified), in series [1], the pEC50 was 6.31. This compound gave a pIC50 in series [2] of 6.68.

`CC(=O)NC1CCN(c2ccc3cc(NC(=O)CCc4ccc(C(F)(F)F)cc4)ccc3n2)C1` (stereo unspecified): the pEC50 in [1] was 6.36. In series [2], this compound showed a pIC50 of 8.30.

`CN(c1ccc2cc(NC(=O)CCc3ccc(C(F)(F)F)cc3)ccc2n1)C1CCCC1` gave an inhibition in [3] of less than 50%. Moreover, the pEC50 in [1] is 6.46. For the same compound, in series [2], the pIC50 was 8.70.

Consider `O=C(CCc1ccc(C(F)(F)F)cc1)Nc1ccc2nc(N3CCCCC3)ccc2c1`, for which the inhibition in series [3] was less than 50%. Besides, the negative logarithm of the EC50 (pEC50) in series [1] was 6.96. In series [2], the pIC50 is 7.92.

Regarding `COC(=O)C1CCCN1c1ccc2cc(NC(=O)CCc3ccc(C(F)(F)F)cc3)ccc2n1` (stereo unspecified), the pEC50 in [1] is 6.24. In addition, in series [2], the pIC50 is 6.10.

In [3], `CCN(CC)c1ccc2cc(NC(=O)CCc3ccc(C(F)(F)F)cc3)ccc2n1` had an inhibition of less than 50%. Further, the negative logarithm of the EC50 (pEC50) in series [1] was 6.08. For the same compound, the pIC50 in series [2] was 7.06.

The compound `CCCN(C)c1ccc2cc(NC(=O)CCc3ccc(C(F)(F)F)cc3)ccc2n1` gave an inhibition in series [3] of less than 50%. Besides, in [1], the negative-log EC50 (pEC50) was 6.85. Also, the pIC50 in series [2] is 8.00.

As for `CC1CCN(c2ccc3cc(NC(=O)CCc4ccc(C(F)(F)F)cc4)ccc3n2)C1` (stereo unspecified), in [1], the negative logarithm of the EC50 (pEC50) is 6.40. The compound also showed a negative-log IC50 (pIC50) in series [2] of 8.70.

Regarding `CNc1ccc2cc(NC(=O)CCc3ccc(C(F)(F)F)cc3)ccc2n1`, the inhibition in series [3] was less than 50%. The pEC50 in series [1] was 6.48. In series [2], this compound gave a pIC50 of 7.70.

In turn, `O=C(CCc1ccc(C(F)(F)F)cc1)Nc1ccc2nc(N3CCC3)ccc2c1` came in with an inhibition in series [3] of less than 50%. The negative logarithm of the EC50 (pEC50) in series [1] was 7.25. Moreover, in [2], the pIC50 was 8.40.

The compound `CN(C)c1ccc2cc(NC(=O)CCc3ccc(C(F)(F)F)cc3)ccc2n1` registered an inhibition in series [3] of less than 50%. Also, the pEC50 in series [1] is 6.96. In series [2], this compound gave a negative-log IC50 (pIC50) of 7.89.

On to `O=C(CCc1ccc(C(F)(F)F)cc1)Nc1ccc2nc(N3CC4CCC3CC4)ccc2c1`, for which, in series [3], the inhibition was less than 50%. For the same compound, the pEC50 in [1] was 6.72. In [2], this compound had a pIC50 of 8.52.

Turning to `CNC(=O)NC1CCN(c2ccc3cc(NC(=O)CCc4ccc(C(F)(F)F)cc4)ccc3n2)C1` (stereo unspecified), in [1], the pEC50 was 7.52. In addition, the negative logarithm of the IC50 (pIC50) in series [2] was 8.22.

Take `CS(=O)(=O)NC1CCN(c2ccc3cc(NC(=O)CCc4ccc(C(F)(F)F)cc4)ccc3n2)C1` (stereo unspecified): the pEC50 in series [1] is 7.30. Besides, the pIC50 in [2] was 8.52.

Regarding `O=C(CCc1ccc(C(F)(F)F)cc1)Nc1ccc2nc(N3CC4CC3CO4)ccc2c1` (stereo unspecified), the negative logarithm of the EC50 (pEC50) in [1] was 7.15. The same compound showed a negative-log IC50 (pIC50) in series [2] of 7.89.

In series [3], `O=C(CCc1ccc(C(F)(F)F)cc1)Nc1ccc2nc(N3CCCC3)ccc2c1` showed an inhibition of less than 50%. Further, the pEC50 in [1] and in [1] (hek293) was 6.49 in each case. The negative-log IC50 (pIC50) in series [2] was 8.52.

The compound `CCCc1cc(N(C)C)c2cc(NC(=O)CCc3ccc(C(F)(F)F)cc3)ccc2n1` had a pIC50 in series [2] of 7.92.

Regarding `CC1CCCN1c1ccc2cc(NC(=O)CCc3ccc(C(F)(F)F)cc3)ccc2n1` (stereo unspecified), in [1], the pEC50 was 6.57. This compound also showed a negative logarithm of the IC50 (pIC50) in series [2] of 8.30.

In the case of `O=C(CCc1ccc(C(F)(F)F)cc1)Nc1ccc2nc(N3CCC(NC(=O)c4ccccc4)C3)ccc2c1` (stereo unspecified), in [1], the pEC50 was 6.96. For the same compound, the pIC50 in [2] was 8.00.

In [3], `CC(C)N(C)c1ccc2cc(NC(=O)CCc3ccc(C(F)(F)F)cc3)ccc2n1` displayed an inhibition of less than 50%. Moreover, the pEC50 in series [1] is 6.85. The same compound had a negative-log IC50 (pIC50) in series [2] of 8.70.

Compound `CCCN(CCC)c1ccc2cc(NC(=O)CCc3ccc(C(F)(F)F)cc3)ccc2n1` came in with an inhibition in [3] of less than 50%. Moreover, the negative-log IC50 (pIC50) in series [2] was 6.31.

For `CC(C)C(=O)NC1CCN(c2ccc3cc(NC(=O)CCc4ccc(C(F)(F)F)cc4)ccc3n2)C1` (stereo unspecified), the negative logarithm of the EC50 (pEC50) in series [1] is 7.05. Further, in series [2], the negative logarithm of the IC50 (pIC50) was 9.00.

Turning to `CN(c1ccccc1)c1ccc2cc(NC(=O)CCc3ccc(C(F)(F)F)cc3)ccc2n1`, the inhibition in [3] is less than 50%. In series [2], this compound showed a pIC50 of 5.43.

Turning to `O=C(CCc1ccc(C(F)(F)F)cc1)Nc1ccc2nc(N3CCC4(CCNC4)C3)ccc2c1` (stereo unspecified), the pEC50 in series [1] is 6.85. Further, the negative-log IC50 (pIC50) in series [2] is 9.30.

In turn, `O=C(CCCCCCCCCCCCc1ccc(C(F)(F)F)cc1)Nc1ccc2nc([N+]34CCC(CC3)CC4)ccc2c1` displayed a Reduced food intake in the series filed under Rattus norvegicus of 26%. Further, the clearance in series [4] is 36 mL/min/kg. Moreover, the Vd in series [5] was found to be 1 L/kg. The compound also gave a half-life in series [6] of 36 min. Also, the figures for the negative-log IC50 (pIC50) in [7] and in series [2] were 7.89 and 8.30, respectively. In addition, the pEC50 in series [1] was 7.60.

As for `O=C(Nc1ccc2nc([N+]34CCC(CC3)CC4)ccc2c1)c1ccc(C(F)(F)F)nc1`, the clearance in [4] was determined as 57 mL/min/kg. The inhibition in series [8] was 20%; in [9] it was 30%. The Vd in series [5] was 3.92 L/kg. Besides, the half-life in series [6] is 66 min. For the same compound, the pEC50 in series [1] was less than 5.00.

On to `O=C(CCc1ccc(C(F)(F)F)cc1)Nc1ccc2nc(N3CCCCCC3)ccc2c1`, for which the inhibition in series [3] was less than 50%. Moreover, the pEC50 in series [1] was 5.74. The compound also had a pIC50 in [2] of 7.44.

In series [3], `Nc1ccc2cc(NC(=O)CCc3ccc(C(F)(F)F)cc3)ccc2n1` yielded an inhibition of less than 50%. For the same compound, the pEC50 in series [1] is 6.14. For the same compound, in series [2], the negative logarithm of the IC50 (pIC50) was 6.62.

As for `O=C(CCc1ccc(C(F)(F)F)cc1)Nc1ccc2nc(N3CC4CCC3C4)ccc2c1` (stereo unspecified), the negative-log EC50 (pEC50) in series [1] was 6.82. In series [2], this compound showed a pIC50 of 9.00.

With `NC1CCN(c2ccc3cc(NC(=O)CCc4ccc(C(F)(F)F)cc4)ccc3n2)C1` (stereo unspecified), in series [1], the pEC50 is 6.70. This compound also gave a pIC50 in series [2] of 7.92.

In series [3], `CN(c1ccc2cc(NC(=O)CCc3ccc(C(F)(F)F)cc3)ccc2n1)C1CCCCC1` displayed an inhibition of less than 50%. Further, the negative logarithm of the EC50 (pEC50) in series [1] is 5.92. Moreover, the negative logarithm of the IC50 (pIC50) in series [2] is 7.74.

As for `O=C(CCc1ccc(C(F)(F)F)cc1)Nc1ccc2nc(N3CCC(c4ccccc4)C3)ccc2c1` (stereo unspecified), the negative logarithm of the EC50 (pEC50) in [1] is 5.75. The pIC50 in series [2] was 7.60.

The pEC50 is the EC50 on a negative log10 scale, so that one unit is a factor of ten. One may read the pIC50 as −log10 of the IC50, conventionally taken in molar units. For orientation: inhibition means the share of the control response that was lost under treatment. The low end stands for a weak effect, the high end for a strong effect. Usually half-life stands for the time in which the quantity being followed falls by half. High values mean slow loss, low ones fast loss.
